These results are taken from ChEMBL document CHEMBL1240496, “Development of potent glucagon-like peptide-1 agonists with high enzyme stability via introduction of multiple lactam bridges” (J Med Chem, 2010).

Data set [1] deals with T1, Glucagon-like peptide 1 receptor (Homo sapiens, UniProt P43220). The experiment in a line: Activation of human GLP1 receptor expressed in HEK293 cells assessed as increase in cAMP accumulation. Format: functional, cell-based. (In general: Changes in cAMP serve as a functional read-out for many G protein-coupled receptors.)
Data set [2] deals with T1, Glucagon-like peptide 1 receptor. The data set can be described thus: Activation of human GLP1 receptor expressed in HEK293 cells assessed as increase in cAMP accumulation relative to GLP1. Format: functional, cell-based.
The test system of a further data set is DPP4. The data set can be described thus: Chemical stability of the compound assessed as half life up to 24 hrs by HPLC analysis in presence of human recombinant DPP4. Format: physicochemical.
In another data set the test system is NEP 24.11. The experiment in a line: Chemical stability of the compound assessed as half life up to 24 hrs by HPLC analysis in presence of human recombinant NEP 24.11. Format: physicochemical.

Bridge positions count the residues as written; N and C are the ends. Peptide text beside a SMILES is read from it.

T1 sequence (P43220 whole entry): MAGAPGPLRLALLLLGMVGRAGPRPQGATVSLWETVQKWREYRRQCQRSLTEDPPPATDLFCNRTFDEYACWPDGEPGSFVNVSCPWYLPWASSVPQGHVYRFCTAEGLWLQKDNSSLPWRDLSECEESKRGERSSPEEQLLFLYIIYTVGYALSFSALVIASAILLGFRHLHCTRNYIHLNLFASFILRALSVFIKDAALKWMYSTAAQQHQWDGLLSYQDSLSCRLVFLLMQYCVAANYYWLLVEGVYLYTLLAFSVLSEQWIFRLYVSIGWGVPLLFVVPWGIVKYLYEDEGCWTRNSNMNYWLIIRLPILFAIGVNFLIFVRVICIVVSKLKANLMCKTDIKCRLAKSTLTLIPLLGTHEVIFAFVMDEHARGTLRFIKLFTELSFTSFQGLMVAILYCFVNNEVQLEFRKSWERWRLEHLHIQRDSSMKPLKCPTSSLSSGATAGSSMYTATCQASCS

As for `CC[C@H](C)[C@H](NC(=O)[C@H](Cc1ccccc1)NC(=O)[C@H](CCC(=O)O)NC(=O)[C@H](CCCCN)NC(=O)[C@H](C)NC(=O)[C@H](C)NC(=O)[C@H](CCC(N)=O)NC(=O)CNC(=O)[C@H](CCC(=O)O)NC(=O)[C@H](CC(C)C)NC(=O)[C@H](Cc1ccc(O)cc1)NC(=O)[C@H](CO)NC(=O)[C@H](CO)NC(=O)[C@@H](NC(=O)[C@H](CC(=O)O)NC(=O)[C@H](CO)NC(=O)[C@@H](NC(=O)[C@H](Cc1ccccc1)NC(=O)[C@@H](NC(=O)CNC(=O)[C@H](CCC(=O)O)NC(=O)[C@H](C)NC(=O)[C@@H](N)Cc1cnc[nH]1)[C@@H](C)O)[C@@H](C)O)C(C)C)C(=O)N[C@H]1CCC(=O)NCCCC[C@@H](C(=O)NCC(=O)N[C@@H](CCCNC(=N)N)C(N)=O)NC(=O)[C@H](C(C)C)NC(=O)[C@H](CC(C)C)NC(=O)[C@H](Cc2c[nH]c3ccccc23)NC1=O`, the EC50 is 5.3 nM in data set [1] (read-out: EC50) and 2.51 nM in data set [1] (read-out: pEC50 (converted)). The Activity in data set [2] was determined as 90%. The half-life (as a rule, the time needed for the level to fall by half in the phase considered) amounted to 3.3 h with DPP4 and 6.9 h in the data set on NEP 24.11.

`CC[C@H](C)[C@H](NC(=O)[C@H](Cc1ccccc1)NC(=O)[C@H](CCC(=O)O)NC(=O)[C@H](CCCCN)NC(=O)[C@H](C)NC(=O)[C@H](C)NC(=O)[C@H](CCC(N)=O)NC(=O)CNC(=O)[C@@H]1CCCCNC(=O)CC[C@H](NC(=O)[C@H](CC(=O)O)NC(=O)[C@H](CO)NC(=O)[C@@H](NC(=O)[C@H](Cc2ccccc2)NC(=O)[C@@H](NC(=O)CNC(=O)[C@H](CCC(=O)O)NC(=O)[C@H](C)NC(=O)[C@@H](N)Cc2cnc[nH]2)[C@@H](C)O)[C@@H](C)O)C(=O)N[C@@H](CO)C(=O)N[C@@H](CO)C(=O)N[C@@H](Cc2ccc(O)cc2)C(=O)N1)C(=O)N[C@@H](C)C(=O)N[C@@H](Cc1c[nH]c2ccccc12)C(=O)N[C@@H](CC(C)C)C(=O)N[C@H](C(=O)N[C@@H](CCCCN)C(=O)NCC(=O)N[C@@H](CCCNC(=N)N)C(N)=O)C(C)C` (H-HAEGTFTSDESSYKGQAAKEFIAWLVKGR-NH2; lactam 10-14): the EC50 in data set [1] (read-out: EC50) is 3.8 nM. Also, the Activity in data set [2] was determined as 120%. Also, the half-life with DPP4 is 1.8 h; in the data set with NEP 24.11, 3.2 h.

Turning to `CC[C@H](C)[C@H](NC(=O)[C@H](Cc1ccccc1)NC(=O)[C@H](CCC(=O)O)NC(=O)[C@H](CCCCN)NC(=O)[C@H](C)NC(=O)[C@H](C)NC(=O)[C@H](CCC(N)=O)NC(=O)CNC(=O)[C@H](CCC(=O)O)NC(=O)[C@@H]1CCC(=O)NCCCC[C@H](NC(=O)[C@H](CC(=O)O)NC(=O)[C@H](CO)NC(=O)[C@@H](NC(=O)[C@H](Cc2ccccc2)NC(=O)[C@@H](NC(=O)CNC(=O)[C@H](CCC(=O)O)NC(=O)[C@H](C)NC(=O)[C@@H](N)Cc2cnc[nH]2)[C@@H](C)O)[C@@H](C)O)C(=O)N[C@@H](CO)C(=O)N[C@@H](CO)C(=O)N[C@@H](Cc2ccc(O)cc2)C(=O)N1)C(=O)N[C@H]1CCCCNC(=O)CC[C@@H](C(=O)NCC(=O)N[C@@H](CCCNC(=N)N)C(N)=O)NC(=O)[C@H](C(C)C)NC(=O)[C@H](CC(C)C)NC(=O)[C@H](Cc2c[nH]c3ccccc23)NC1=O` (H-HAEGTFTSDKSSYEEGQAAKEFIKWLVEGR-NH2; lactam 10-14, 24-28), in data set [1] (read-out: EC50), the EC50 is 7 nM. Further, the Activity in data set [2] came to 70%. Moreover, the half-life turned out to be 2.9 h in the data set on DPP4 and 17 h in the data set with NEP 24.11.

In the case of `CC[C@H](C)[C@H](NC(=O)[C@H](Cc1ccccc1)NC(=O)[C@H](CCC(=O)O)NC(=O)[C@H](CCCCN)NC(=O)[C@H](C)NC(=O)[C@H](C)NC(=O)[C@@H]1CCCCNC(=O)CC[C@H](NC(=O)[C@H](CO)NC(=O)[C@@H](NC(=O)[C@H](CC(=O)O)NC(=O)[C@H](CO)NC(=O)[C@@H](NC(=O)[C@H](Cc2ccccc2)NC(=O)[C@@H](NC(=O)CNC(=O)[C@H](CCC(=O)O)NC(=O)[C@H](C)NC(=O)[C@@H](N)Cc2cnc[nH]2)[C@@H](C)O)[C@@H](C)O)C(C)C)C(=O)N[C@@H](Cc2ccc(O)cc2)C(=O)N[C@@H](CC(C)C)C(=O)NCC(=O)N1)C(=O)N[C@@H](C)C(=O)N[C@@H](Cc1c[nH]c2ccccc12)C(=O)N[C@@H](CC(C)C)C(=O)N[C@H](C(=O)N[C@@H](CCCCN)C(=O)NCC(=O)N[C@@H](CCCNC(=N)N)C(N)=O)C(C)C` (H-HAEGTFTSDVSEYLGKAAKEFIAWLVKGR-NH2; lactam 12-16), the EC50 in data set [1] (read-out: EC50) was 0.6 nM. Moreover, the Activity in data set [2] turned out to be 770%. Besides, the half-life was 2.1 h in the data set on DPP4 and 10 h with NEP 24.11.

With `CC[C@H](C)[C@H](NC(=O)[C@H](Cc1ccccc1)NC(=O)[C@H](CCC(=O)O)NC(=O)[C@H](CCCCN)NC(=O)[C@H](C)NC(=O)[C@H](C)NC(=O)[C@H](CCC(N)=O)NC(=O)[C@@H]1CCC(=O)NCCCC[C@H](NC(=O)[C@H](CO)NC(=O)[C@@H](NC(=O)[C@H](CC(=O)O)NC(=O)[C@H](CO)NC(=O)[C@@H](NC(=O)[C@H](Cc2ccccc2)NC(=O)[C@@H](NC(=O)CNC(=O)[C@H](CCC(=O)O)NC(=O)[C@H](C)NC(=O)[C@@H](N)Cc2cnc[nH]2)[C@@H](C)O)[C@@H](C)O)C(C)C)C(=O)N[C@@H](Cc2ccc(O)cc2)C(=O)N[C@@H](CC(C)C)C(=O)N[C@@H](CCC(=O)O)C(=O)N1)C(=O)N[C@H]1CCCCNC(=O)CC[C@@H](C(=O)NCC(=O)N[C@@H](CCCNC(=N)N)C(N)=O)NC(=O)[C@H](C(C)C)NC(=O)[C@H](CC(C)C)NC(=O)[C@H](Cc2c[nH]c3ccccc23)NC1=O` (H-HAEGTFTSDVSKYLEEQAAKEFIKWLVEGR-NH2; lactam 12-16, 24-28), in data set [1] (read-out: EC50), the EC50 came out at 1 nM. The Activity in data set [2] stood at 460%. Further, the half-life in the data set on DPP4 was found to be 4.1 h; in the data set with NEP 24.11, 18 h.

As to `CC[C@H](C)[C@H](NC(=O)[C@H](Cc1ccccc1)NC(=O)[C@H](CCC(=O)O)NC(=O)[C@@H]1CCCCNC(=O)CC[C@H](NC(=O)[C@H](CCC(=O)O)NC(=O)[C@H](CC(C)C)NC(=O)[C@H](Cc2ccc(O)cc2)NC(=O)[C@H](CO)NC(=O)[C@H](CO)NC(=O)[C@@H](NC(=O)[C@H](CC(=O)O)NC(=O)[C@H](CO)NC(=O)[C@@H](NC(=O)[C@H](Cc2ccccc2)NC(=O)[C@@H](NC(=O)CNC(=O)[C@H](CCC(=O)O)NC(=O)[C@H](C)NC(=O)[C@@H](N)Cc2cnc[nH]2)[C@@H](C)O)[C@@H](C)O)C(C)C)C(=O)N[C@@H](CCC(N)=O)C(=O)N[C@@H](C)C(=O)N[C@@H](C)C(=O)N1)C(=O)N[C@H]1CCC(=O)NCCCC[C@@H](C(=O)NCC(=O)N[C@@H](CCCNC(=N)N)C(N)=O)NC(=O)[C@H](C(C)C)NC(=O)[C@H](CC(C)C)NC(=O)[C@H](Cc2c[nH]c3ccccc23)NC1=O` (H-HAEGTFTSDVSSYLEEQAAKEFIEWLVKGR-NH2; lactam 16-20, 24-28), the EC50 in data set [1] (read-out: EC50) turned out to be 1.6 nM. Besides, the Activity in data set [2] was 290%. In addition, the half-life in the data set on DPP4 is 6 h; with NEP 24.11, 3.5 h.

As to `CC[C@H](C)[C@H](NC(=O)[C@H](Cc1ccccc1)NC(=O)[C@H](CCC(=O)O)NC(=O)[C@@H]1CCC(=O)NCCCC[C@H](NC(=O)[C@H](CCC(=O)O)NC(=O)[C@H](CC(C)C)NC(=O)[C@H](Cc2ccc(O)cc2)NC(=O)[C@H](CO)NC(=O)[C@H](CO)NC(=O)[C@@H](NC(=O)[C@H](CC(=O)O)NC(=O)[C@H](CO)NC(=O)[C@@H](NC(=O)[C@H](Cc2ccccc2)NC(=O)[C@@H](NC(=O)CNC(=O)[C@H](CCC(=O)O)NC(=O)[C@H](C)NC(=O)[C@@H](N)Cc2cnc[nH]2)[C@@H](C)O)[C@@H](C)O)C(C)C)C(=O)N[C@@H](CCC(N)=O)C(=O)N[C@@H](C)C(=O)N[C@@H](C)C(=O)N1)C(=O)N[C@H]1CCCCNC(=O)CC[C@@H](C(=O)NCC(=O)N[C@@H](CCCNC(=N)N)C(N)=O)NC(=O)[C@H](C(C)C)NC(=O)[C@H](CC(C)C)NC(=O)[C@H](Cc2c[nH]c3ccccc23)NC1=O` (H-HAEGTFTSDVSSYLEKQAAEEFIKWLVEGR-NH2; lactam 16-20, 24-28), the EC50 in data set [1] (read-out: EC50) stood at 2.2 nM. Moreover, the Activity in data set [2] was found to be 210%. Besides, the figures for the half-life in the data set on DPP4 and with NEP 24.11 were 7.3 h and 1.2 h, respectively.
